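Where inhibition never reached the appropriate level, the endpoint shown equals the highest concentration tested. Otherwise, values were interpolated linearly from a five-concentration, 48-hour dose response in 96-well plates. GI50: concentration for 50% inhibition of growth.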 Active and inactive are the calls of the source. Rule as the data show it: active = GI50 up to about 1.1 µM and inactive = higher.
Experiments:
Experiment in all cases: NCI anticancer screen, dose series, 48 h
786-0 = system: 786-0
A498 = system: A498
A549 = system: A549
ACHN = system: ACHN
CAKI-1 = system: CAKI-1
CCRF-CEM = system: CCRF-CEM
COLO 205 = system: COLO 205
DLD-1 = system: DLD-1
DMS-114 = system: DMS-114
DMS-273 = system: DMS-273
EKVX = system: EKVX
HCC 2998 = system: HCC 2998
HCT-116 = system: HCT-116
HCT-15 = system: HCT-15
HL-60 = system: HL-60
HOP-62 = system: HOP-62
HOP-92 = system: HOP-92
HT-29 = system: HT-29
IGROV-1 = system: IGROV-1
K562 = system: K562
KM-20L2 = system: KM-20L2
KM12 = system: KM12
LOX IMVI = system: LOX IMVI
LXFL 529 = system: LXFL 529
M14 = system: M14
M19-MEL = system: M19-MEL
MOLT-4 = system: MOLT-4
Malme-3M = system: Malme-3M
NCI-H226 = system: NCI-H226
NCI-H23 = system: NCI-H23
NCI-H460 = system: NCI-H460
NCI-H522 = system: NCI-H522
OVCAR-3 = system: OVCAR-3
OVCAR-4 = system: OVCAR-4
OVCAR-5 = system: OVCAR-5
OVCAR-8 = system: OVCAR-8
RPMI-8226 = system: RPMI-8226
RXF 393 = system: RXF 393
RXF 631 = system: RXF 631
SF-268 = system: SF-268
SF-295 = system: SF-295
SF-539 = system: SF-539
SK-MEL-28 = system: SK-MEL-28
SK-MEL-2 = system: SK-MEL-2
SK-MEL-5 = system: SK-MEL-5
SK-OV-3 = system: SK-OV-3
SN12C = system: SN12C
SNB-19 = system: SNB-19
SNB-75 = system: SNB-75
SNB-78 = system: SNB-78
SR = system: SR
SW-620 = system: SW-620
TK-10 = system: TK-10
U-251 = system: U-251
UACC-257 = system: UACC-257
UACC-62 = system: UACC-62
UO-31 = system: UO-31
XF498 = system: XF498
HOP-18 = system: HOP-18

Structure (SMILES): O=[N+]([O-])c1ccc(C(Cl)C(Cl)c2ccc(C(Cl)C(Cl)c3ccc([N+](=O)[O-])cc3[N+](=O)[O-])cc2)c([N+](=O)[O-])c1 (stereo not given)
- GI50 (786-0): 1.39 µM (inactive)
- GI50 (A498): 2.9 µM (inactive)
- GI50 (A549): 1.63 µM (inactive)
- GI50 (ACHN): 2.05 µM (inactive)
- GI50 (CAKI-1): 1.67 µM (inactive)
- GI50 (CCRF-CEM): 0.232 µM (active)
- GI50 (COLO 205): 1 µM (active)
- GI50 (DLD-1): 1.78 µM (inactive)
- GI50 (DMS-114): 1.42 µM (inactive)
- GI50 (DMS-273): 1.47 µM (inactive)
- GI50 (EKVX): 2.13 µM (inactive)
- GI50 (HCC 2998): 1.96 µM (inactive)
- GI50 (HCT-116): 0.931 µM (active)
- GI50 (HCT-15): 1.19 µM
- GI50 (HL-60): 1.93 µM (inactive)
- GI50 (HOP-62): 3.01 µM (inactive)
- GI50 (HOP-92): 1.28 µM (inactive)
- GI50 (HT-29): 1.76 µM (inactive)
- GI50 (IGROV-1): 2.05 µM (inactive)
- GI50 (K562): 0.187 µM (active)
- GI50 (KM-20L2): 0.0638 µM (active)
- GI50 (KM12): 0.264 µM (active)
- GI50 (LOX IMVI): 1.36 µM (inactive)
- GI50 (LXFL 529): 0.92 µM (active)
- GI50 (M14): 0.879 µM (active)
- GI50 (M19-MEL): 1.33 µM (inactive)
- GI50 (MOLT-4): 1.61 µM (inactive)
- GI50 (Malme-3M): 1.27 µM (inactive)
- GI50 (NCI-H226): 2.29 µM (inactive)
- GI50 (NCI-H23): 1.52 µM (inactive)
- GI50 (NCI-H460): 0.957 µM (active)
- GI50 (NCI-H522): 1.14 µM (inactive)
- GI50 (OVCAR-3): 0.254 µM (active)
- GI50 (OVCAR-4): 1.52 µM (inactive)
- GI50 (OVCAR-5): 1.86 µM (inactive)
- GI50 (OVCAR-8): 0.912 µM (active)
- GI50 (RPMI-8226): 0.8 µM (active)
- GI50 (RXF 393): 0.964 µM (active)
- GI50 (RXF 631): 1.57 µM (inactive)
- GI50 (SF-268): 1.89 µM (inactive)
- GI50 (SF-295): 2.31 µM (inactive)
- GI50 (SF-539): 1.67 µM (inactive)
- GI50 (SK-MEL-28): 2.3 µM (inactive)
- GI50 (SK-MEL-2): 1.42 µM (inactive)
- GI50 (SK-MEL-5): 0.991 µM (active)
- GI50 (SK-OV-3): 22.8 µM (inactive)
- GI50 (SN12C): 1.95 µM (inactive)
- GI50 (SNB-19): 0.671 µM (active)
- GI50 (SNB-75): 8.02 µM (inactive)
- GI50 (SNB-78): 3.44 µM (inactive)
- GI50 (SR): 2.23 µM (inactive)
- GI50 (SW-620): 0.75 µM (active)
- GI50 (TK-10): 5.79 µM (inactive)
- GI50 (U-251): 1.26 µM (inactive)
- GI50 (UACC-257): 1.72 µM (inactive)
- GI50 (UACC-62): 1.16 µM (inactive)
- GI50 (UO-31): 2.17 µM (inactive)
- GI50 (XF498): 0.184 µM (active)

Structure (SMILES): COc1ccc(N(CC(=O)O)S(=O)(=O)c2ccccc2)cc1
- GI50 (786-0): > 100 µM (inactive)
- GI50 (A498): > 100 µM (inactive)
- GI50 (A549): > 100 µM (inactive)
- GI50 (ACHN): > 100 µM (inactive)
- GI50 (CAKI-1): > 100 µM (inactive)
- GI50 (CCRF-CEM): > 100 µM (inactive)
- GI50 (COLO 205): > 100 µM (inactive)
- GI50 (DLD-1): > 100 µM (inactive)
- GI50 (DMS-273): > 100 µM (inactive)
- GI50 (EKVX): > 100 µM (inactive)
- GI50 (HCT-15): > 100 µM
- GI50 (HL-60): > 100 µM (inactive)
- GI50 (HOP-18): > 100 µM (inactive)
- GI50 (HOP-92): > 100 µM (inactive)
- GI50 (HT-29): > 100 µM (inactive)
- GI50 (IGROV-1): > 100 µM (inactive)
- GI50 (K562): > 100 µM (inactive)
- GI50 (KM-20L2): > 100 µM (inactive)
- GI50 (KM12): > 100 µM (inactive)
- GI50 (LOX IMVI): > 100 µM (inactive)
- GI50 (LXFL 529): > 100 µM (inactive)
- GI50 (M14): > 100 µM (inactive)
- GI50 (M19-MEL): > 100 µM (inactive)
- GI50 (MOLT-4): > 100 µM (inactive)
- GI50 (Malme-3M): > 100 µM (inactive)
- GI50 (NCI-H226): > 100 µM (inactive)
- GI50 (NCI-H23): > 100 µM (inactive)
- GI50 (NCI-H460): > 100 µM (inactive)
- GI50 (NCI-H522): > 100 µM (inactive)
- GI50 (OVCAR-3): > 100 µM (inactive)
- GI50 (OVCAR-4): > 100 µM (inactive)
- GI50 (OVCAR-5): > 100 µM (inactive)
- GI50 (OVCAR-8): > 100 µM (inactive)
- GI50 (RPMI-8226): > 100 µM (inactive)
- GI50 (RXF 393): > 100 µM (inactive)
- GI50 (RXF 631): > 100 µM (inactive)
- GI50 (SF-295): > 100 µM (inactive)
- GI50 (SF-539): > 100 µM (inactive)
- GI50 (SK-MEL-2): > 100 µM (inactive)
- GI50 (SK-MEL-5): > 100 µM (inactive)
- GI50 (SK-OV-3): > 100 µM (inactive)
- GI50 (SN12C): > 100 µM (inactive)
- GI50 (SNB-19): > 100 µM (inactive)
- GI50 (SW-620): > 100 µM (inactive)
- GI50 (TK-10): > 100 µM (inactive)
- GI50 (U-251): > 100 µM (inactive)
- GI50 (UACC-257): > 100 µM (inactive)
- GI50 (UACC-62): > 100 µM (inactive)
- GI50 (UO-31): > 100 µM (inactive)
- GI50 (XF498): > 100 µM (inactive)

Structure (SMILES): N#C/C(=C\c1cccc(O)c1)C(N)=O
- GI50 (786-0): > 100 µM (inactive)
- GI50 (A498): > 100 µM (inactive)
- GI50 (A549): > 100 µM (inactive)
- GI50 (ACHN): > 100 µM (inactive)
- GI50 (CAKI-1): > 100 µM (inactive)
- GI50 (CCRF-CEM): > 100 µM (inactive)
- GI50 (COLO 205): > 100 µM (inactive)
- GI50 (DLD-1): > 100 µM (inactive)
- GI50 (DMS-114): > 100 µM (inactive)
- GI50 (DMS-273): > 100 µM (inactive)
- GI50 (EKVX): > 100 µM (inactive)
- GI50 (HCC 2998): > 100 µM (inactive)
- GI50 (HCT-116): > 100 µM (inactive)
- GI50 (HCT-15): > 100 µM
- GI50 (HL-60): 20.9 µM (inactive)
- GI50 (HOP-62): > 100 µM (inactive)
- GI50 (HOP-92): > 100 µM (inactive)
- GI50 (HT-29): > 100 µM (inactive)
- GI50 (IGROV-1): > 100 µM (inactive)
- GI50 (K562): > 100 µM (inactive)
- GI50 (KM-20L2): > 100 µM (inactive)
- GI50 (KM12): > 100 µM (inactive)
- GI50 (LOX IMVI): > 100 µM (inactive)
- GI50 (LXFL 529): > 100 µM (inactive)
- GI50 (M14): > 100 µM (inactive)
- GI50 (M19-MEL): > 100 µM (inactive)
- GI50 (MOLT-4): > 100 µM (inactive)
- GI50 (Malme-3M): > 100 µM (inactive)
- GI50 (NCI-H226): > 100 µM (inactive)
- GI50 (NCI-H23): > 100 µM (inactive)
- GI50 (NCI-H460): > 100 µM (inactive)
- GI50 (NCI-H522): > 100 µM (inactive)
- GI50 (OVCAR-3): > 100 µM (inactive)
- GI50 (OVCAR-4): > 100 µM (inactive)
- GI50 (OVCAR-5): > 100 µM (inactive)
- GI50 (OVCAR-8): > 100 µM (inactive)
- GI50 (RPMI-8226): > 100 µM (inactive)
- GI50 (RXF 393): 61.4 µM (inactive)
- GI50 (RXF 631): > 100 µM (inactive)
- GI50 (SF-268): > 100 µM (inactive)
- GI50 (SF-295): > 100 µM (inactive)
- GI50 (SF-539): > 100 µM (inactive)
- GI50 (SK-MEL-28): > 100 µM (inactive)
- GI50 (SK-MEL-2): > 100 µM (inactive)
- GI50 (SK-MEL-5): > 100 µM (inactive)
- GI50 (SK-OV-3): > 100 µM (inactive)
- GI50 (SN12C): > 100 µM (inactive)
- GI50 (SNB-19): > 100 µM (inactive)
- GI50 (SNB-75): 22.3 µM (inactive)
- GI50 (SNB-78): > 100 µM (inactive)
- GI50 (SW-620): > 100 µM (inactive)
- GI50 (TK-10): > 100 µM (inactive)
- GI50 (U-251): > 100 µM (inactive)
- GI50 (UACC-257): > 100 µM (inactive)
- GI50 (UACC-62): > 100 µM (inactive)
- GI50 (UO-31): > 100 µM (inactive)
- GI50 (XF498): > 100 µM (inactive)

— ChEMBL document CHEMBL1201862, “PubChem BioAssay data set” (2004)
